Source: US20250270180A1, “MEK INHIBITORS AND THERAPEUTIC USES THEREOF” (Immuneering Corporation, priority 2020, published 2025)
In brackets after ≈: the same amount, converted by molar mass. Like-named read-outs stand apart in the source and are kept apart here.

Key:
[1] = Plasma stability, beagle dog; assay type: in vitro ADME; details: 2 μM
[2] = Kinetic solubility (PBS pH 7.4; 4 hr); assay type: physicochemical
Procedure: The plates were shaken for 4 h at room temperature in an Eppendorf Thermomixer. After incubation, the plates were centrifuged for 20 minutes at 4680 rpm. From the supernatant, 150 uL was transferred to a new 96 well plate and 50 uL DMSO was added to ensure continued dissolution. Samples were measured on LC-UV at injection volumes of 1 and 8 uL. Peak areas were determined and compared to peak areas obtained using calibration curves of the test compounds in DMSO.

[3] = molecular target: CYP450 3A4 (Homo sapiens, UniProt P08684); test: CYP450 panel, 3A4; details: 10 μM; for 3A4*: substrate midazolam; for 3A4^: substrate testosterone
[4] = Plasma stability, CD-1 mouse; assay type: in vitro ADME; details: 2 μM
[5] = eLogD (lipophilicity; pH 7.4); assay type: physicochemical
Procedure: Test compounds were dissolved in DMSO at a concentration of 10 mM and further diluted with methanol: water 1:1. Samples were analyzed using gradient HPLC with three different isocratic mobile phases of 0.25% octanol in methanol (60, 65 and 70%) and 20 mM MOPS buffer (pH 7.4) with decylamine. If needed, (for low ElogDoct compounds) the isocratic mobile phases were adjusted to e.g. 40, 45 and 50% methanol. Peaks were detected using a diode array at absorbance 220-320 nm.
Capacity factors data (k′ _=(tr−_t0)/t0) obtained at various amounts of methanol were extrapolated to 0% methanol and k′w values are determined using a linear procedure. ElogDoct (7.4) is calculated using a series of reference standards with known Log D values. Each experiment was performed in triplicate.

[6] = Microsome stability, CD-1 mouse; details: microsomes, 2 μM
[7] = molecular target: T1, CYP450 1A2 (Homo sapiens, UniProt P05177); test: CYP450 panel, 1A2; assay type: in vitro ADME; details: 10 μM; substrate phenacetin
T1 sequence (P05177 1-516): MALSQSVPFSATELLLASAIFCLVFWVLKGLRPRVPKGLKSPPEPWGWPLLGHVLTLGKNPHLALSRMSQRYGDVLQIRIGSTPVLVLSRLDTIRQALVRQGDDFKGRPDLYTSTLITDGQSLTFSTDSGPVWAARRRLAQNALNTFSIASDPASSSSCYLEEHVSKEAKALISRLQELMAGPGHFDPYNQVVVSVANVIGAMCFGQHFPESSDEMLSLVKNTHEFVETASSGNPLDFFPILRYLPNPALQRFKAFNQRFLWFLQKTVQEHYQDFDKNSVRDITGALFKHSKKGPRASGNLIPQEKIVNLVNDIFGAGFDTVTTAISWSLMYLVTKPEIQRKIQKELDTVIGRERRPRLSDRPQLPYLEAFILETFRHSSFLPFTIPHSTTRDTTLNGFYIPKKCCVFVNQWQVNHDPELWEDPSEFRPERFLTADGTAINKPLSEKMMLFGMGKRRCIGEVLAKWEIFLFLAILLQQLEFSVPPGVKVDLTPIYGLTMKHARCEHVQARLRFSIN

[8] = Plasma stability, human; assay type: in vitro ADME; details: 2 μM
[9] = Microsome stability, human; assay type: in vitro ADME; details: microsomes, 2 μM
[10] = tested on: Colon-26 KRAS-G12D tumor; test: Colon-26 model (KRAS G12D CRC): efficacy & safety; assay type: in vivo; details: Colon-26 KRAS-G12D in Balb/c
Procedure: Female athymic BALB/c nude or BALB/c mice (Beijing Vital River Laboratory Animal Technology Co., Ltd.), approximately 8-10 weeks old were used in these studies. Animals were maintained in individually vented cages on a 12-h light-dark cycle. Food and water were available ad libitum. The Colon-26 tumor cells were maintained in vitro with RPMI1640 medium supplemented with 10% fetal bovine serum at 37° C. in an atmosphere of 5% CO2 in air. The cells in exponential growth phase were harvested and quantitated by cell counter before tumor inoculation. Each mouse was inoculated subcutaneously in the right flank region with Colon-26 tumor cells (5×10^5) in 0.1 mL of PBS. Randomization was started when the mean tumor size reached approximately 125 mm3. A total of 84 tumor-bearing mice were enrolled in the study and allocated into 7 treatment groups (12 mice per group). Also 12 non-tumor-bearing mice were assigned as un-treated group.
Animals were treated with either vehicle (10% DMSO/90% [20% SBE-β-CD in saline], pH 5) or vehicle containing compounds at the indicated doses by gavage (p.o.) twice daily for approximately 28-42 days (BID x 28-42 p.o.), or to ethical endpoints (BWL>20%; Median Tumor Volume (MTV)>2000 mm3; Individual TV>3000 mm3; clinical signs of unwell). Clinical signs of unwell was characterized, but not limited to the following. Severe dehydration, hypothermia, abnormal/labored respiration, lethargy, obvious pain, diarrhea, skin lesions, neurological symptoms, impaired mobility (not able to eat or drink) due to significant ascites and enlarged abdomen, astasia, continuous prone or lateral position, signs of muscular atrophy, paralytic gait, clonic convulsions, tonic convulsions, persistent bleeding from body orifice. Dosing as well as tumor and body weight measurements were conducted in a Laminar Flow Cabinet.
Animals were checked daily for morbidity and mortality. During routine monitoring, the animals were checked for any effects of tumor growth and treatments on behavior such as mobility, food and water consumption, body weight gain/loss (body weights were measured twice per week after randomization), eye/hair matting and any other abnormalities. Mortality and observed clinical signs were recorded for individual animals in detail.
Tumor volumes were measured twice per week after randomization in two dimensions using a caliper, and the volume was expressed in mm3 using the formula: V=(L×W×W)/2, where V is tumor volume, L is tumor length (the longest tumor dimension) and W is tumor width (the longest tumor dimension perpendicular to L). Results were presented as the median tumor volume, expressed in mm3+/−interquartile range, of each group. Tumor Growth Inhibition; TGI %=[1−(Ti/(Ci)]×100; where Ti as the median tumor volume of the treatment group on the measurement day, Ci as the median tumor volume of control group at the measurement day.

[11] = molecular target: CYP450 2D6 (Homo sapiens, UniProt P10635); test: CYP450 panel, 2D6; details: 10 μM; substrate dextromethophan
[12] = 10 mM PBS buffer, aqueous buffer, kinetic from dmso stock

CYP450 2D6, sequence (P10635 whole entry): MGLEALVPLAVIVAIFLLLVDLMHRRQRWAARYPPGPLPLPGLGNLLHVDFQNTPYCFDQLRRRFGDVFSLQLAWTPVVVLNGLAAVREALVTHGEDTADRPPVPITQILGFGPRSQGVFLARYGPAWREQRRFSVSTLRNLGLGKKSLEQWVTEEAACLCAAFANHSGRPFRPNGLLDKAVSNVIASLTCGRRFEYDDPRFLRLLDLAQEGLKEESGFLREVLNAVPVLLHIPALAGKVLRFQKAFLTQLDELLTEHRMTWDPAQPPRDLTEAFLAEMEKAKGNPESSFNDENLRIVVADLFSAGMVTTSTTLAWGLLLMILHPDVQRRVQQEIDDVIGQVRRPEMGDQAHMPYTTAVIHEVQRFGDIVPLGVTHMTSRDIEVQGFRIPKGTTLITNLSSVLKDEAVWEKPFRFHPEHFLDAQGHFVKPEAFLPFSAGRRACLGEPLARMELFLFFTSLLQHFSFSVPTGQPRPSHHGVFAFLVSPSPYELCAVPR
CYP450 3A4, sequence (P08684 whole entry): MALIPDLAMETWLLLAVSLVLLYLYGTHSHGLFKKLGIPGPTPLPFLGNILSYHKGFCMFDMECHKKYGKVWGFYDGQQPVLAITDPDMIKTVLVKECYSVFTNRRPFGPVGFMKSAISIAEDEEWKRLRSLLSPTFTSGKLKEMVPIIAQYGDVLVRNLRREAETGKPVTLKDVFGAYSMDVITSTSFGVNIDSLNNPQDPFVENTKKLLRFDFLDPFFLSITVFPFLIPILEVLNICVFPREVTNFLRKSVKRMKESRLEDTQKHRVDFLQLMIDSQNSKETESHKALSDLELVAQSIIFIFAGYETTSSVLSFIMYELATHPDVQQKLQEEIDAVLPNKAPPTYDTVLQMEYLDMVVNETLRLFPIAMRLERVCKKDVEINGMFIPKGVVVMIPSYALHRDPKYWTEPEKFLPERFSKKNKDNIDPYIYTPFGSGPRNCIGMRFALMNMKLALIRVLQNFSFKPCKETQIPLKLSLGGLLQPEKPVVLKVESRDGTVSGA

SMILES | Beagle Dog (% Reamining @2 hour) [1] [%] | solubility kinetic at 4 h [2] [µM] | 3A4* [3] | 3A4^ [3] | CD-1 Mouse (% Reamining @2 hour) [4] [%] | eLogD (lipophilicity; pH = 7.4) [5] | CD-1 Mouse (% Reamining @1 hour) [6] [%] | 1A2* [7] | Human (% Reamining @2 hour) [8] [%] | Human (% Reamining @1 hour) [9] [%] | BWL (Day 14) ([10]; 50 mg/kg BID po) [%] | BWL (Day 17) ([10]; 50 mg/kg BID po) [%] | TGI (Day 10) ([10]; 50 mg/kg BID po) [%] | 2D6* [11] | solubility kinetic at 4 h [2, 12] [µM] | BWL (Day 14) ([10]; 150 mg/kg BID po) [%] | BWL (Day 17) ([10]; 150 mg/kg BID po) [%] | TGI (Day 10) ([10]; 150 mg/kg BID po) [%]
Cn1cnc2c(F)c(Nc3ccc(Br)cc3Cl)c(C(=O)NOCCO)cc21 [Reference 1, Selumetinib, reference compound] | 100.4 | 36 (≈ 16.5 µg/mL) | 25.9 | 21.4 | 104.8 | 3.6 | 13.9 | 8.3 | 98.1 | 75.8 | 0 | −2 | 60.0 | 5.0 |  |  |  | 
CNS(=O)(=O)Nc1nccc(Cc2c(C)c3ccc(Oc4ncccn4)cc3oc2=O)c1F [Reference 2, reference compound] | 99.8 |  | 16.6 | 15.7 | 92.9 | 3.6 | 96.0 | 0.8 | 91.1 | 107.1 |  |  | 61.6 | 3.4 | 36 (≈ 17 µg/mL) |  |  | 
CNS(=O)(=O)Nc1cccc(Cc2c(CN(C)C)c3ccc(OC(=O)N(C)C)cc3oc2=O)c1F [Compound 9] | 96.8 |  | 16.3 | 26.8 | 90.6 | 3.0 | 54.3 | 4.8 | 95.1 | 51.7 |  |  |  | −3.7 | > 80 | 0 | 0 | 93.9
